What was measured:
Aβ42 oligomers = molecular target: T1, Aβ42 oligomers (Homo sapiens, UniProt P05067); test: Fluorescence saturation binding assay with Aβ42 oligomers; conditions: for Kd / binding ratio, Oligomers: Aβ42 oligomers; for Kd: 10 mM PBS pH 7.4, one site-specific binding model; for binding ratio, Oligomers: from cross point between plateau and initial slope; for binding preference oligomers vs fibrils (from Kd values): lower Kd for Aβ oligomers than Aβ fibrils
T1 construct: 1 mg of commercial Aβ42 monomer powder (from GL biochem) was dissolved in 1; purchased GL biochem
Description: (§1) Fig. 3 Binding constant measurements of ZY-5-OMe (left), ZY-5-MT (middle), ZY-5-DT (right) with Aβ42 fibrils (top), and oligomers (bottom). The measurements were performed in 10 mM phosphate buffered saline (PBS), pH 7.4. The Kd curves were fitted in GraphPad Prism with one site-specific binding model. Equation: Y = Bmax × X/(Kd + X). [Aβ42 fibrils] = [Aβ42 oligomers] = 5 μM.
(§2) Preparation of the Aβ42 Fibrils and Aβ42 Oligomers
(§3) Aβ42 fibrils: 1 mg of commercial Aβ42 monomer powder (from GL biochem) was dissolved in 1
(§4) mL 1,1,1,3,3,3-hexafluoro-2-propanol (HFIP) at room temperature and incubated for 1h. The
(§5) resulting solution was divided equally into two Eppendorf tubes. The solution in each Eppendorf
(§6) tube containing 0.5 mg Aβ42 monomer was then evaporated overnight and dried by vacuum
(§7) centrifuge to generate monomeric films. 100 μM Aβ42 fibrils solution was prepared by dissolving
(§8) the 0.5 mg monomeric films in 1.1 mL PBS buffer (with final DMSO concentration less than 1%)
(§9) and stiring at 37 °C for 3 days.
(§10) Aβ42 oligomers: The 0.5 mg monomeric films were dissolved in 1.1 mL PBS buffer (with final
(§11) DMSO concentration less than 1%) and incubated at 4 °C overnight. The resulting solution was
(§12) then centrifuged at 3000 rpm for 15 mins to remove the insoluble aggregates. The clear supernatant
(§13) was then used for the following experiments. […]
(§14) In Vitro Saturation Binding Studies with Aβ42 Fibrils and Aβ42 Oligomers
(§15) To a solution of increasing concentrations of compounds, a fixed concentration of the generated
(§16) aggregated Aβ42 fibrils or Aβ42 oligomers solutions (5 to 15 μM) was added to yield a total volume
(§17) of 100 μL. Nonspecific binding was determined without compounds. The mixture was incubated
(§18) for 15 min at room temperature. All fluorescence data were obtained on a SpectraMax M2e plate
(§19) reader (Molecular Devices).

[1] = Log D by octanol-PBS partition assay; type: physicochemical; conditions: pH 7.4, fluorescence readout
Description: In order to confirm that the compounds can also bind to native Aβ species, brain sections collected from 9-month-old 5xFAD transgenic mice have been employed in the fluorescence imaging studies. […] The brain sections were first incubated with our compounds, followed by Congo Red (CR), which is a well-established fluorescent probe that can bind to Aβ plaques.[34] The treated brain sections were then imaged using fluorescence microscope. […] Immunostaining with the CF594-conjugated HJ 3.4 antibody (CF594-HJ3.4) was also performed to confirm that these six compounds can bind to Aβ species specifically in the brain sections (Fig. 5). Moreover, the log D values of the compounds were also measured by octanol-PBS partition assays.[35] […]
The Log D value was measured following a published procedure using slight modifications.4 In general, compounds in 0.5 mL octanol was subjected to partition with 0.5 mL octanol-saturated
PBS. The whole mixture was stirred vigorously for 5 min, and centrifuged at 2,000 rpm for 5 min.
The top octanol layer was separated for later fluorescence measurement. The remaining PBS layer was partitioned with 0.5 mL PBS-saturated octanol, and the second top octanol layer was then separated after vigorous stirring and centrifuging at 2,000 rpm for another 5 min. The two octanol layers’ fluorescence spectra were recorded. The log D value was calculated by the fluorescence intensity ratio at the compounds’ emission wavelength for the above two octanol extractions. […]

Aβ42 fibrils = molecular target: T2, Aβ42 fibrils (Homo sapiens, UniProt P05067); test: Fluorescence saturation binding assay with Aβ42 fibrils; conditions: Aβ42 fibrils; for Kd: 10 mM PBS pH 7.4, one site-specific binding model, read-out: Kd, Fibrils; for binding ratio, Fibrils: from cross point between plateau and initial slope
T2 construct: 1 mg of commercial Aβ42 monomer powder (from GL biochem) was dissolved in 1; purchased GL biochem
Description: as §1, §2, §3, §4, §5, §6, §7, §8, §9, §10, §11, §12, §13, §14, §15, §16, §17, §18, §19

[2] = molecular target: T3, Aβ plaques in 5xFAD mice brain sections (Homo sapiens, UniProt P05067); test: Fluorescence imaging of 5xFAD mouse brain sections, colocalization with Congo Red; conditions: 9-month-old 5xFAD brain sections; compound 5 μM, Congo red 2.5 μM
T3 construct: aggregated Aβ species were commonly observed in brain sections from 5xFAD transgenic mice; tissue Jackson Laboratories; host or cells: brain sections of 9-month-old 5xFAD transgenic mice
Description: In order to confirm that the compounds can also bind to native Aβ species, brain sections collected from 9-month-old 5xFAD transgenic mice have been employed in the fluorescence imaging studies. […] The brain sections were first incubated with our compounds, followed by Congo Red (CR), which is a well-established fluorescent probe that can bind to Aβ plaques.[34] The treated brain sections were then imaged using fluorescence microscope. […] Immunostaining with the CF594-conjugated HJ 3.4 antibody (CF594-HJ3.4) was also performed to confirm that these six compounds can bind to Aβ species specifically in the brain sections (Fig. 5). Moreover, the log D values of the compounds were also measured by octanol-PBS partition assays.[35]
Fig. 4 Fluorescence microscopy images of 5xFAD mice brain sections co-incubated with amphiphilic compounds (top), Congo red (middle) and merged images (bottom, along with the Parson's correlation coefficients R). Concentrations: [amphiphilic compounds] = 5 μM, [Congo red] = 2.5 μM; scale bar: 125 μm. TEXT PRINTED IN THE PICTURE: ZY-5-MT: Merged R= 0.84 | ZY-12-DT: Merged R= 0.52 | ZY-12-OMe: Merged R= 0.77 | ZY-15-OMe: Merged R= 0.77 | ZY-17-DT: Merged R= 0.77 | ZY-17-OMe: Merged R= 0.72 […]
Histological Staining of 5×FAD Mice Brain Sections
5xFAD transgenic mice brain sections were blocked with bovine serum albumin (2% BSA in PBS, pH 7.4, 10 min). Then the mice brain sections were transferred to a PBS solution of the compound and incubated for 1 h. After which, the brain sections were transferred to a PBS solution of Congo Red or antibody HJ 3.4 (Professor David Holtzman, 1 μg/ml) and incubated for another 1 h. Then, the brain sections were treated with BSA again (5 min) followed by washing with PBS (3 × 2 min), DI water (3 × 2 min). Finally, the mice brain sections were mounted with non-fluorescent mounting media, and the images were obtained by using EVOS FL Auto 2. ImageJ Fiji program was used for colocalization analysis and determination of the Pearson’s correlation coefficient. The primary

T3 sequence (P05067 672-713 limits assumed): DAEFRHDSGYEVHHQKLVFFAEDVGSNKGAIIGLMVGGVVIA
T1 sequence (P05067 672-713 limits assumed): as above
T2 sequence (P05067 672-713 limits assumed): as above

Row | Compound | Kd (Aβ42 oligomers) [nM] | binding ratio, Oligomers (Aβ42 oligomers) | logD [1] | Kd (Aβ42 fibrils) [nM] | binding ratio, Fibrils (Aβ42 fibrils) | binding preference oligomers vs fibrils (from Kd values) (Aβ42 oligomers) | Pearson's correlation coefficient R, colocalization with Congo Red [2]
1 | COc1cc(/C=C/c2ccc(-c3ccc(N(C)C)cc3)s2)cc(CN2CCN(C)CCN(C)CC2)c1O [ZY-5-OMe] | 1040 | 4.0 | 1.18 ± 0.046 | 680 | 5.6 |  | 
2 | COc1cc(/C=C/c2ccc(-c3ccc(C=O)cc3)s2)cc(CN2CCN(C)CCN(C)CC2)c1O [ZY-15-OMe] | 470 | 8.1 | 1.053 ± 0.002 | 1240 | 3.0 | higher binding affinity to oligomers over fibrils | 0.77
3 | COc1cc(OC)cc(-c2ccc(/C=C/c3cc(CN4CCN(C)CCN(C)CC4)c(O)c(CN4CCN(C)CCN(C)CC4)c3)cc2)c1 [ZY-17-DT] | 1030 | 33.3 | 0.606 ± 0.032 | 2250 | 1.1 | higher binding affinity to oligomers over fibrils | 0.77
4 | CN1CCN(C)CCN(Cc2cc(-c3ccc(/C=C/c4ccc(N(C)C)cc4)s3)ccc2O)CC1 [ZY-12-MT] | 6270 | 1.0 | 0.83 ± 0.035 | 4190 | 1.3 |  | 
5 | CN1CCN(C)CCN(Cc2cc(/C=C/c3ccc(-c4ccc(C=O)cc4)s3)ccc2O)CC1 [ZY-15-MT] | 2030 | 2.5 | 1.11 ± 0.021 | 530 | 10.0 |  | 
6 | COc1cc(OC)cc(-c2ccc(/C=C/c3cc(CN4CCN(C)CCN(C)CC4)c(O)c(OC)c3)cc2)c1 [ZY-17-OMe] | 120 | 46.7 | 0.732 ± 0.019 | 180 | 21.9 | higher binding affinity to oligomers over fibrils | 0.72

From publication PMC9645390, “Amphiphilic stilbene derivatives attenuate the neurotoxicity of soluble Aβ42 oligomers by controlling their interactions with cell membranes” (Chemical Science, 2022)
